Results reported in ChEMBL document CHEMBL1201862, “PubChem BioAssay data set” (2004).
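Results reflect a 48-hour exposure of cells in 96-well plates to compound at five concentrations. Abbreviation: GI50, concentration required for 50% inhibition of growth.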 Calls of active or inactive are those of the source. Rule as the data show it: active = GI50 up to about 1.1 µM and inactive = higher.

Experiments:
Assay in all cases: NCI anticancer screen, dose series, 48 h
786-0 = tested on: 786-0
A549 = tested on: A549
ACHN = tested on: ACHN
CAKI-1 = tested on: CAKI-1
CCRF-CEM = tested on: CCRF-CEM
COLO 205 = tested on: COLO 205
DLD-1 = tested on: DLD-1
DMS-114 = tested on: DMS-114
DMS-273 = tested on: DMS-273
EKVX = tested on: EKVX
HCC 2998 = tested on: HCC 2998
HCT-15 = tested on: HCT-15
HL-60 = tested on: HL-60
HOP-62 = tested on: HOP-62
HOP-92 = tested on: HOP-92
HT-29 = tested on: HT-29
IGROV-1 = tested on: IGROV-1
K562 = tested on: K562
KM12 = tested on: KM12
LOX IMVI = tested on: LOX IMVI
LXFL 529 = tested on: LXFL 529
M14 = tested on: M14
M19-MEL = tested on: M19-MEL
MOLT-4 = tested on: MOLT-4
Malme-3M = tested on: Malme-3M
NCI-H226 = tested on: NCI-H226
NCI-H460 = tested on: NCI-H460
NCI-H522 = tested on: NCI-H522
OVCAR-3 = tested on: OVCAR-3
OVCAR-4 = tested on: OVCAR-4
OVCAR-5 = tested on: OVCAR-5
OVCAR-8 = tested on: OVCAR-8
RPMI-8226 = tested on: RPMI-8226
RXF 393 = tested on: RXF 393
RXF 631 = tested on: RXF 631
SF-268 = tested on: SF-268
SF-295 = tested on: SF-295
SF-539 = tested on: SF-539
SK-MEL-28 = tested on: SK-MEL-28
SK-MEL-2 = tested on: SK-MEL-2
SK-MEL-5 = tested on: SK-MEL-5
SK-OV-3 = tested on: SK-OV-3
SN12C = tested on: SN12C
SNB-19 = tested on: SNB-19
SNB-75 = tested on: SNB-75
SNB-78 = tested on: SNB-78
SW-620 = tested on: SW-620
TK-10 = tested on: TK-10
U-251 = tested on: U-251
UACC-257 = tested on: UACC-257
UACC-62 = tested on: UACC-62
UO-31 = tested on: UO-31
A498 = tested on: A498
HCT-116 = tested on: HCT-116
HOP-18 = tested on: HOP-18
KM-20L2 = tested on: KM-20L2
NCI-H23 = tested on: NCI-H23
SR = tested on: SR
XF498 = tested on: XF498

Structure (SMILES): COc1c(C)cc(O)cc1C=O
- GI50 (786-0): > 100 µM (inactive)
- GI50 (A549): > 100 µM (inactive)
- GI50 (ACHN): > 100 µM (inactive)
- GI50 (CAKI-1): > 100 µM (inactive)
- GI50 (CCRF-CEM): > 100 µM (inactive)
- GI50 (COLO 205): > 100 µM (inactive)
- GI50 (DLD-1): > 100 µM (inactive)
- GI50 (DMS-114): > 100 µM (inactive)
- GI50 (DMS-273): > 100 µM (inactive)
- GI50 (EKVX): > 100 µM (inactive)
- GI50 (HCC 2998): > 100 µM (inactive)
- GI50 (HCT-15): > 100 µM
- GI50 (HL-60): > 100 µM (inactive)
- GI50 (HOP-62): > 100 µM (inactive)
- GI50 (HOP-92): > 100 µM (inactive)
- GI50 (HT-29): > 100 µM (inactive)
- GI50 (IGROV-1): > 100 µM (inactive)
- GI50 (K562): > 100 µM (inactive)
- GI50 (KM12): 93.3 µM (inactive)
- GI50 (LOX IMVI): > 100 µM (inactive)
- GI50 (LXFL 529): > 100 µM (inactive)
- GI50 (M14): > 100 µM (inactive)
- GI50 (M19-MEL): > 100 µM (inactive)
- GI50 (MOLT-4): > 100 µM (inactive)
- GI50 (Malme-3M): > 100 µM (inactive)
- GI50 (NCI-H226): > 100 µM (inactive)
- GI50 (NCI-H460): > 100 µM (inactive)
- GI50 (NCI-H522): > 100 µM (inactive)
- GI50 (OVCAR-3): > 100 µM (inactive)
- GI50 (OVCAR-4): > 100 µM (inactive)
- GI50 (OVCAR-5): > 100 µM (inactive)
- GI50 (OVCAR-8): > 100 µM (inactive)
- GI50 (RPMI-8226): > 100 µM (inactive)
- GI50 (RXF 393): > 100 µM (inactive)
- GI50 (RXF 631): > 100 µM (inactive)
- GI50 (SF-268): > 100 µM (inactive)
- GI50 (SF-295): > 100 µM (inactive)
- GI50 (SF-539): > 100 µM (inactive)
- GI50 (SK-MEL-28): > 100 µM (inactive)
- GI50 (SK-MEL-2): > 100 µM (inactive)
- GI50 (SK-MEL-5): > 100 µM (inactive)
- GI50 (SK-OV-3): > 100 µM (inactive)
- GI50 (SN12C): > 100 µM (inactive)
- GI50 (SNB-19): > 100 µM (inactive)
- GI50 (SNB-75): > 100 µM (inactive)
- GI50 (SNB-78): > 100 µM (inactive)
- GI50 (SW-620): > 100 µM (inactive)
- GI50 (TK-10): > 100 µM (inactive)
- GI50 (U-251): > 100 µM (inactive)
- GI50 (UACC-257): > 100 µM (inactive)
- GI50 (UACC-62): > 100 µM (inactive)
- GI50 (UO-31): > 100 µM (inactive)

Structure (SMILES): COc1ccc(-c2cnoc2-c2ccc(OC)c(OC)c2)cc1OC
- GI50 (786-0): 1.64 µM (inactive)
- GI50 (A498): 1.6 µM (inactive)
- GI50 (A549): 3.02 µM (inactive)
- GI50 (ACHN): 4.68 µM (inactive)
- GI50 (CAKI-1): 2.35 µM (inactive)
- GI50 (CCRF-CEM): 1.73 µM (inactive)
- GI50 (COLO 205): 1.18 µM (inactive)
- GI50 (DLD-1): 2.12 µM (inactive)
- GI50 (DMS-114): 0.441 µM (active)
- GI50 (DMS-273): 0.314 µM (active)
- GI50 (EKVX): 1.31 µM (inactive)
- GI50 (HCC 2998): 1.05 µM (active)
- GI50 (HCT-116): 1.26 µM (inactive)
- GI50 (HCT-15): 0.4 µM
- GI50 (HL-60): 0.313 µM (active)
- GI50 (HOP-18): 6.14 µM (inactive)
- GI50 (HOP-62): 1.1 µM (active)
- GI50 (HOP-92): 2.67 µM (inactive)
- GI50 (HT-29): 1.27 µM (inactive)
- GI50 (IGROV-1): 1.29 µM (inactive)
- GI50 (K562): 0.445 µM (active)
- GI50 (KM-20L2): 4.66 µM (inactive)
- GI50 (KM12): 0.746 µM (active)
- GI50 (LOX IMVI): 1.42 µM (inactive)
- GI50 (LXFL 529): 1.83 µM (inactive)
- GI50 (M14): 0.851 µM (active)
- GI50 (M19-MEL): 0.891 µM (active)
- GI50 (MOLT-4): 0.893 µM (active)
- GI50 (Malme-3M): 2.15 µM (inactive)
- GI50 (NCI-H226): 1.71 µM (inactive)
- GI50 (NCI-H23): 1.24 µM (inactive)
- GI50 (NCI-H460): 2.48 µM (inactive)
- GI50 (NCI-H522): 0.556 µM (active)
- GI50 (OVCAR-3): 1.31 µM (inactive)
- GI50 (OVCAR-4): 18.9 µM (inactive)
- GI50 (OVCAR-5): 3.72 µM (inactive)
- GI50 (OVCAR-8): 3.1 µM (inactive)
- GI50 (RPMI-8226): 1.54 µM (inactive)
- GI50 (RXF 393): 1.23 µM (inactive)
- GI50 (SF-268): 2.32 µM (inactive)
- GI50 (SF-295): 0.883 µM (active)
- GI50 (SF-539): 1.2 µM (inactive)
- GI50 (SK-MEL-28): 1.62 µM (inactive)
- GI50 (SK-MEL-2): 1.08 µM (active)
- GI50 (SK-MEL-5): 0.908 µM (active)
- GI50 (SK-OV-3): 1.47 µM (inactive)
- GI50 (SN12C): 3.04 µM (inactive)
- GI50 (SNB-19): 4.15 µM (inactive)
- GI50 (SNB-75): 1.78 µM (inactive)
- GI50 (SNB-78): 7.62 µM (inactive)
- GI50 (SR): 0.318 µM (active)
- GI50 (SW-620): 0.414 µM (active)
- GI50 (TK-10): 3.85 µM (inactive)
- GI50 (U-251): 2.34 µM (inactive)
- GI50 (UACC-257): 5.53 µM (inactive)
- GI50 (UACC-62): 0.406 µM (active)
- GI50 (UO-31): 4.46 µM (inactive)
- GI50 (XF498): 1.75 µM (inactive)

Structure (SMILES): O=Cc1ccccc1COC(=O)c1cc(C(=O)OCc2ccccc2C=O)c(C(=O)OCc2ccccc2C=O)cc1C(=O)OCc1ccccc1C=O
- GI50 (786-0): 23.6 µM (inactive)
- GI50 (A498): > 100 µM (inactive)
- GI50 (A549): > 100 µM (inactive)
- GI50 (ACHN): > 100 µM (inactive)
- GI50 (CAKI-1): > 100 µM (inactive)
- GI50 (CCRF-CEM): 43.4 µM (inactive)
- GI50 (COLO 205): > 100 µM (inactive)
- GI50 (DLD-1): > 100 µM (inactive)
- GI50 (DMS-114): 49.4 µM (inactive)
- GI50 (DMS-273): 30.3 µM (inactive)
- GI50 (EKVX): > 100 µM (inactive)
- GI50 (HCC 2998): > 100 µM (inactive)
- GI50 (HCT-116): 31.9 µM (inactive)
- GI50 (HCT-15): > 100 µM
- GI50 (HL-60): 38.2 µM (inactive)
- GI50 (HOP-18): > 100 µM (inactive)
- GI50 (HOP-92): 31.6 µM (inactive)
- GI50 (HT-29): > 100 µM (inactive)
- GI50 (IGROV-1): > 100 µM (inactive)
- GI50 (K562): 39.8 µM (inactive)
- GI50 (KM-20L2): > 100 µM (inactive)
- GI50 (KM12): > 100 µM (inactive)
- GI50 (LOX IMVI): 42 µM (inactive)
- GI50 (LXFL 529): 46.3 µM (inactive)
- GI50 (M14): > 100 µM (inactive)
- GI50 (M19-MEL): > 100 µM (inactive)
- GI50 (MOLT-4): 30.3 µM (inactive)
- GI50 (Malme-3M): > 100 µM (inactive)
- GI50 (NCI-H226): > 100 µM (inactive)
- GI50 (NCI-H23): > 100 µM (inactive)
- GI50 (NCI-H460): > 100 µM (inactive)
- GI50 (NCI-H522): > 100 µM (inactive)
- GI50 (OVCAR-3): > 100 µM (inactive)
- GI50 (OVCAR-4): > 100 µM (inactive)
- GI50 (OVCAR-5): > 100 µM (inactive)
- GI50 (OVCAR-8): 80 µM (inactive)
- GI50 (RPMI-8226): 43.7 µM (inactive)
- GI50 (RXF 393): 31.3 µM (inactive)
- GI50 (SF-268): 69.2 µM (inactive)
- GI50 (SF-295): 64.6 µM (inactive)
- GI50 (SF-539): > 100 µM (inactive)
- GI50 (SK-MEL-28): > 100 µM (inactive)
- GI50 (SK-MEL-2): 82.2 µM (inactive)
- GI50 (SK-MEL-5): > 100 µM (inactive)
- GI50 (SK-OV-3): > 100 µM (inactive)
- GI50 (SN12C): > 100 µM (inactive)
- GI50 (SNB-19): > 100 µM (inactive)
- GI50 (SNB-75): 21.5 µM (inactive)
- GI50 (SNB-78): 40.7 µM (inactive)
- GI50 (SR): 29.5 µM (inactive)
- GI50 (SW-620): > 100 µM (inactive)
- GI50 (TK-10): 61.9 µM (inactive)
- GI50 (U-251): 47.1 µM (inactive)
- GI50 (UACC-257): > 100 µM (inactive)
- GI50 (UACC-62): > 100 µM (inactive)
- GI50 (UO-31): > 100 µM (inactive)
- GI50 (XF498): > 100 µM (inactive)
